One assay concerns carrageen oedema. Put plainly: Antiinflammatory (Carrageen oedema inhibiting) effect. In kind it is in vivo. On the procedure: 4. Antiinflammatory (Carrageen oedema inhibiting) effect
The experiments were carried out by the method of Winter et al. [Winter, C. A. et al.: Proc. Soc. […] 0.1 ml of a 1 per cent carrageen suspension was injected subcutaneously into the plantar region of one of the hind paws. Rats were fasted for 12 hours and received drinking water ad libitum. One hour before treatment with the test compound the animals were hydrated orally with 30 ml/kg of tap water. The test compounds or the vehicle were administered p.o. in a volume of 10 ml/kg, then one hour later carrageen was applied. The volume of the treated paw was measured by a plethysmometer before and 3 hours after injection in such a way that displacement of the liquid arising from the volume alteration was indicated on a millimeter scale. The volume of the treated paws were compared with those of the control group.

The test system of a further assay is right atrium. Put plainly: Positive inotropic effect in guinea pig (isolated right atrium). The conditions noted are these: for Frequency: percentage change of atrial frequency; for Concentration force dP/dt: percentage change, 2 Hz, 37° C., concentration not given. On the procedure:
2. Positive inotropic effect in guinea pig
The experiments were carried out by the method of Alousi [Alousi, A. A. et al.: J. Cardiovasc. […] Animals weighing 400-600 g were stunned with a blow to the head and exsanguinated. The heart was excised and the right atrium was removed and placed into a modified Tyrode solution of 37° C. It was then preloaded with 2.1 g and stimulated electrically at a rate of 2 Hz by rectangular pulses 0.5 ms in duration. The first derivative by time of the contraction force of the isolated organ (dP/dt) and the atrial frequency were recorded by a polygraph. From the data thus obtained percentage changes were calculated.

For assay [1], the system named is anaesthetized cat, left ventricular pressure (dP/dtmax). Put plainly: Positive inotropic effect in anaesthetized cat. To be noted: Felis catus, iv; for change in vivo at 1 mg/kg: 1 mg/kg i.v.; for change in vivo at 5 mg/kg: 5 mg/kg i.v.; for change in vivo at 10 mg/kg: 10 mg/kg i.v. In kind it is in vivo. On the procedure:
1. Positive inotropic effect in anaesthetized cat
The experiments were carried out on male and female cats anaesthetized with chloralose-urethane (40/300 mg/kg i.p. in a volume of 1 ml/kg). A polyethylene catheter was inserted into the left ventricle via the right subclavian artery. The inotropic activity was measured with the aid of the first derivative by time of the left ventricular pressure curve (dP/dtmax). The blood pressure was measured by means of another catheter introduced from the left femoral artery into the upper third part of the abdominal artery. A Statham P23Db transducer and HSE (Hugo Sachs Electronics) amplifiers were used for both pressure measurements. […] The test compounds were administered via a femoral venous cannula.

The subject of assay [2] is rats (vasopressin induced coronaria insufficiency). Put plainly: Antianginal effect in rats (vasopressin induced coronaria insufficiency). It counts as in vivo. To be noted: Rattus norvegicus, iv; i.v. 2 minutes prior to vasopressin; T wave in ECG. On the procedure: 3.a) Antianginal effect in rats
Rats weighing 180-220 g were narcotized with chloralose-urethane (70/700 mg/kg i.p.). The ECG was registered with needle electrodes in standard II leading. The experimental coronaria insufficiency was induced with vasopressin (1 NE/kg i.v.). The height of T wave in ECG was measured before and after the administration of vasopressin in both the control and treated groups. Test compounds were administered intravenously 2 minutes prior to the treatment with vasopressin.

The subject of another assay is coronary artery. As to the kind of experiment: Coronary flow test in dog. It counts as in vivo. On the procedure:
3.b) Coronary flow test in dog
The experiments were carried out in young mongrel do, of both sexes weighing 10-26 kg. The test compounds were administered in 1-5-10 mg/kg doses intravenously. […] Mean arterial blood pressure was recorded on the carotis with a Statham gauge (type: p23Db). The changes of the myocardial contractile forces were followed isometrically with a microdynamometer (type: Experimetria, SG-01) affixed to the anterior wall of the left ventricle. Data were collected on the first derivate of the myocardial contractile force to follow the changes of the contraction and relaxation speed. […] The changes of the heart rate were also followed. The conductivity of the coronary artery (the ratio of the mean coronary flow and the mean blood pressure) was calculated. The mean values were evaluated statistically using Student's test as well as regression analysis and multiple t test.

Where [3] appears, read: Rattus norvegicus, po, 3 h; read-out: ID30.

Where two headings read alike, the source gives them in different places.

With `CC(=O)Oc1ccccc1C(=O)O` [Acetylsalicylic acid, reference compound], in the assay on carrageen oedema (Rattus norvegicus, po, 3 h, read-out: ID30), the ED30 turned out to be 62.4 mg/kg.
Regarding `Nc1cc(-c2ccncc2)c[nH]c1=O` [Amrinone, reference compound], in the assay on right atrium, the Frequency came to 28% and the “Concentration force dP/dt” value is reported as 33%. Moreover, in assay [1], the change in vivo at 1 mg/kg was determined as 19%, the change in vivo at 5 mg/kg was found to be 53.9% and the change in vivo at 10 mg/kg was found to be 48.3%.
What is called ED50 is the dose that gives a 50% effect, or the effect in half of the subjects. Low readings indicate greater potency, high ones weaker potency. In assay [2], `C=CCN(CC=C)c1c2c(nc3nc(SC)nn13)CCC2` [Example 4, 5-(Diallylamino)-2-(methylthio)-6,7-dihydro-8H-cyclopenta[d]-1,2,4-triazolo[1,5-a]pyrimidine] yielded an ED50 of 1.97 mg/kg.
`CSc1nc2nc3c(c(NCc4ccccc4)n2n1)CCC3` [Example 6, 5-(Benzylamino)-2-(methylthio)-6,7-dihydro-8H-cyclopenta[d]-1,2,4-triazolo[1,5-a]pyrimidine] registered an ED50 in assay [2] of 1.49 mg/kg.
As for `CSc1nc2nc3c(c(NCc4ccc(Cl)cc4)n2n1)CCC3` [Example 7, 5-(4-Chlorobenzylamino)-2-(methylthio)-6,7-dihydro-8H-cyclopenta[d]-1,2,4-triazolo[1,5-a]pyrimidine], in the assay with carrageen oedema (setting [3]), the ED30 is 200 mg/kg.
On to `CSc1nc2nc3c(c(N4CCOCC4)n2n1)CCC3` [Example 8, 2-(Methylthio)-5-morpholino-6,7-dihydro-8H-cyclopenta[d]-1,2,4-triazolo[1,5-a]pyrimidine], for which, in the assay on right atrium, the Frequency was -5% and the “Concentration force dP/dt” value worked out at 86%. In assay [1], this compound registered a change in vivo at 1 mg/kg of 42.8%, a change in vivo at 5 mg/kg of 76% and a change in vivo at 10 mg/kg of 86.3%.
For `CSc1nc2nc3c(c(N4CCN(CCO)CC4)n2n1)CCC3` [Example 9, 5-[4-(2-Hydroxyethyl)piperazino]-2-(methylthio)-6,7-dihydro-8H-cyclopenta[d]-1,2,4-triazolo[1,5-a]pyrimidine], in assay [2], the ED50 is about 2 mg/kg.
With `CSc1nc2nc3c(c(NCCN4CCOCC4)n2n1)CCC3` [Example 10, 2-(Methylthio)-5-[N-(2-morpholinoethyl)]amino-6,7-dihydro-8H-cyclopenta[d]-1,2,4-triazolo[1,5-a]pyrimidine], the ED30 in the assay with carrageen oedema (setting [3]) was determined as 120 mg/kg. This compound also came in with an ED50 in assay [2] of 1.47 mg/kg.
Consider `CSc1nc2nc3c(c(NCCCN4CCOCC4)n2n1)CCCC3` [Example 19, 2-(Methylthio)-5-[N-(3-morpholinopropyl)]amino-6,7,8,9-tetrahydro-1,2,4-triazolo[5,1-b]quinazoline], for which, in the assay with right atrium, the Frequency is -2% and the “Concentration force dP/dt” value was found to be 171%. In assay [1], the change in vivo at 1 mg/kg stood at 35%, the change in vivo at 5 mg/kg stood at 72.8% and the change in vivo at 10 mg/kg was 90.6%.
As for `CN(C)CCCNc1c2c(nc3nc(N4CCOCC4)nn13)CCCC2` [Example 22, 5-[N-(3-Dimethylaminopropyl)]amino-2-morpholino-6,7,8,9-tetrahydro-1,2,4-triazolo[5,1-b]quinazoline], the ED50 in assay [2] was about 2 mg/kg.
Take `CCN(CC)c1c2c(nc3nc(N(C)C)nn13)CCCS2` [Example 26, 5-(Diethylamino)-2-(dimethylamino)-7,8-dihydro-9H-thiopyrano[3,2-d]-1,2,4-triazolo[1,5-a]pyrimidine]: the ED30 with carrageen oedema (setting [3]) was 170 mg/kg.
The compound `CC(C)Sc1nc2nc3c(c(NCCCN4CCOCC4)n2n1)CCCC3` [Example 30, 2-(1-Methylethylthio)-5-[N-(3-morpholinopropyl)]amino-6,7,8,9-tetrahydro-1,2,4-triazolo[5,1-b]quinazoline] displayed a change in vivo at 1 mg/kg in assay [1] of 22.3%. This compound also came in with a change in vivo at 5 mg/kg in assay [1] of 53.8%. Besides, in assay [1], the change in vivo at 10 mg/kg turned out to be 86.8%. The “Conductivity of the coronary artery” value in the assay with coronary artery (1 mg/kg i.v.) was found to be 166%; in the assay with coronary artery (5 mg/kg i.v.), 397%; with coronary artery (10 mg/kg i.v.), 481%.
In assay [1], `CCSc1nc2nc3c(c(NCCN4CCOCC4)n2n1)CCCC3` [Example 31, 2-(Ethylthio)-5-[N-(2-morpholinoethyl)]amino-6,7,8,9-tetrahydro-1,2,4-triazolo[5,1-b]quinazoline] returned a change in vivo at 1 mg/kg of 46.5%, a change in vivo at 5 mg/kg of 131% and a change in vivo at 10 mg/kg of 129%.
Regarding `CSc1nc2nc3c(c(NCCN4CCOCC4)n2n1)CCCCCCCCCC3` [Example 35, 2-(Methylthio)-5-[N-(2-morpholinoethyl)]amino-6,7,8,9,10,11,12,13,14,15-decahydro-cyclododeca[d]-1,2,4-triazolo[1,5-a]pyrimidine], the Frequency with right atrium came to 8%. The “Concentration force dP/dt” value in the assay with right atrium is listed as 79%. For the same compound, the “Conductivity of the coronary artery” value is 256% in the assay on coronary artery (1 mg/kg i.v.), 940% in the assay on coronary artery (5 mg/kg i.v.) and 1030% with coronary artery (10 mg/kg i.v.).
Consider `CSc1nc2nc3c(c(NCCN4CCOCC4)n2n1)CCCCC3` [Example 37, 2-(Methylthio)-5-[N-(2-morpholinoethyl)]amino-6,7,8,9-tetrahydro-10H-cyclohepta[d]-1,2,4-triazolo[1,5-a]pyrimidine], for which the “Conductivity of the coronary artery” value in the assay on coronary artery (1 mg/kg i.v.) is listed as 188%; in the assay with coronary artery (5 mg/kg i.v.), 371%; in the assay with coronary artery (10 mg/kg i.v.), 780%.
Consider `CSc1nc2nc3c(c(NCCN4CCOCC4)n2n1)SCCC3` [Example 39, 2-(Methylthio)-5-[N-(2-morpholinoethyl)]amino-7,8-dihydro-9H-thiopyrano[3,2-d]-1,2,4-triazolo[1,5-a]pyrimidine], for which, in the assay on right atrium, the Frequency is given as -12% and the “Concentration force dP/dt” value was found to be 51%.
Taken in the same sequence, the figures for `CSc1nc2nc3c(c(NCCN4CCOCC4)n2n1)CCN(Cc1ccccc1)C3` [Example 46, 8-Benzyl-2-(methylthio)-5-[N-(2-morpholinoethyl)]amino-6,7,8,9-tetrahydropyrido[3,4-d]-1,2,4-triazolo[1,5-a]pyrimidine] were -15% and 80%.
With `COc1ccc(CNc2c3c(nc4nc(SC)nn24)CCC3)cc1` [Example 50, 2-(Methylthio)-5-(4-methoxybenzylamino)-6,7-dihydro-8H-cyclopenta[d]-1,2,4-triazolo[1,5-a]pyrimidine], the ED30 in the assay on carrageen oedema (setting [3]) is 190 mg/kg.
In the case of `CN(C)c1nc2nc3c(c(NCCCN4CCOCC4)n2n1)SCCC3` [Example 53, 2-(Dimethylamino)-5-[N-(3-morpholinopropyl)]amino7,8-dihydro-9H-thiopyrano[3,2-d]-1,2,4-triazolo[1,5-a]pyrimidine], in assay [1] (0.5 mg/kg i.v.), the change in vivo at 0.5 mg/kg amounted to 35.5%. In assay [1], this compound registered a change in vivo at 1 mg/kg of 48%, a change in vivo at 5 mg/kg of 95% and a change in vivo at 10 mg/kg of 93.6%.
With `CSc1nc2nc3c(c(N4CCN(Cc5ccccc5)CC4)n2n1)CCC3` [Example 54, 5-(4-Benzylpiperazino)-2-(methylthio)-6,7-dihydro-8H-cyclopenta[d]-1,2,4-triazolo[1,5-a]pyrimidine], the ED30 in the assay with carrageen oedema (setting [3]) amounted to 85 mg/kg.
The compound `CCOC(=O)CNc1c2c(nc3nc(SC)nn13)CCC2` [Example 60, Ethyl N-[2-methylthio-6,7-dihydro-8H-cyclopenta[d]-1,2,4-triazolo[1,5-a]pyrimidin-5-yl]glycinate] displayed an ED50 in assay [2] of about 2 mg/kg.
On to `CC(=O)Nc1ccc(O)cc1` [Paracetamol, reference compound], for which the ED30 in the assay with carrageen oedema (setting [3]) was 195 mg/kg.

These data come from patent US5478825A, “5-(substituted amino)-1,2,4-triazolo (1,5-A) pyrimidine derivatives” (Egis Gyogyszergyar, priority 1991, dated 1995).
